Reference: DBAASP
≈ marks a conversion by molar mass, not a printed value.

Columns and labels:
Test in all cases: ≥ marks a high value that may be exact or a test limit, other limits are often not marked, values filed in µg/mL are converted to µM
[1] = tested on: Alcaligenes faecalis MTCC 1937
[2] = tested on: Klebsiella pneumoniae MTCC 7407
[3] = tested on: Pluralibacter gergoviae MTCC 3826
[4] = tested on: Staphylococcus aureus MTCC 3160
[5] = tested on: Acinetobacter baumannii MTCC 9829
[6] = tested on: Shigella boydii MTCC 11947
[7] = tested on: Shigella flexneri MTCC 1457
[8] = tested on: Citrobacter koseri MTCC 1657
[9] = tested on: Citrobacter freundii MTCC 1658
[10] = tested on: Proteus vulgaris MTCC 1771
[11] = tested on: Alkalihalobacillus alcalophilus MTCC 860
[12] = tested on: Stenotrophomonas maltophilia MTCC 1890
[13] = tested on: Escherichia coli K12 MG1655
[14] = tested on: Klebsiella oxytoca MTCC 2275
[15] = tested on: Salmonella enterica MTCC 9844
[16] = tested on: Salmonella enterica subsp. enterica serovar Typhimurium ATCC 14028
[17] = tested on: Corynebacterium glutamicum MTCC 2679
[18] = tested on: Vibrio cholerae MTCC 3904
[19] = tested on: Klebsiella aerogenes MTCC 111
[20] = tested on: Bordetella bronchiseptica MTCC 6837
[21] = tested on: Haemophilus influenzae MTCC 621
[22] = tested on: Enterococcus faecalis MTCC 439
[23] = tested on: Staphylococcus haemolyticus MTCC 3383
[24] = tested on: Pseudomonas aeruginosa MTCC 3542
[25] = tested on: Proteus mirabilis MTCC 3158
[26] = tested on: Proteus mirabilis ATCC 35659
Staphylococcus aureus MR = tested on: Staphylococcus aureus MR
[27] = tested on: Enterococcus faecium 5F-10
[28] = tested on: Pseudomonas aeruginosa PAO1
[29] = tested on: Salmonella enterica ATCC H9812
[30] = tested on: Staphylococcus aureus ATCC 29213
[31] = tested on: Enterococcus faecium 4W-9
[32] = tested on: Bacillus licheniformis ATCC 14580
Enterococcus faecalis A4 = tested on: Enterococcus faecalis A4
[33] = tested on: Escherichia coli ATCC 25922
[34] = tested on: Staphylococcus aureus 215
[35] = tested on: Bacillus cereus ATCC 14579
[36] = tested on: Bacillus amyloliquefaciens ATCC 23842
[37] = tested on: Enterococcus faecalis 1F-1
[38] = tested on: Bacillus subtilis ATCC 6051
Bacillus subtilis 168 HT = tested on: Bacillus subtilis 168 HT
Escherichia coli MG1655 = tested on: Escherichia coli MG1655
Escherichia coli ER2566 = tested on: Escherichia coli ER2566
[39] = tested on: Salmonella enterica subsp. enterica serovar Pullorum C79-13
[40] = tested on: Staphylococcus aureus ATCC 25923
[41] = tested on: Escherichia coli CMCC 44102
[42] = tested on: Pseudomonas aeruginosa ATCC 21625
Escherichia coli 078 = tested on: Escherichia coli 078
Escherichia coli K88 = tested on: Escherichia coli K88
[43] = tested on: Pseudomonas aeruginosa ATCC 27853
[44] = tested on: Staphylococcus epidermidis ATCC 12228
Escherichia coli UB1005 = tested on: Escherichia coli UB1005
[45] = tested on: Enterococcus faecalis ATCC 29212
[46] = tested on: Bacillus subtilis ATCC 11060
[47] = tested on: Salmonella enterica subsp. enterica serovar Typhimurium C77-31
[48] = tested on: Pseudomonas aeruginosa ATCC 10419
[49] = tested on: Escherichia coli CVCC 1515
[50] = tested on: Pseudomonas aeruginosa ATCC 21630

CC[C@H](C)[C@H](NC(=O)[C@H](C)NC(=O)[C@H](CCCCN)NC(=O)[C@@H](N)CCC(=O)O)C(=O)N[C@@H](CC(C)C)C(=O)N[C@@H](CO)C(=O)N[C@@H](C)C(=O)N[C@@H](CC(C)C)C(=O)N[C@@H](CCCCN)C(=O)N[C@@H](CC(C)C)C(=O)N[C@@H](CC(C)C)C(=O)N[C@@H](CCCN=C(N)N)C(=O)N[C@@H](CC(C)C)C(=O)N[C@@H](C)C(=O)N[C@@H](CC(C)C)C(=O)O [EKAILSALKLLRLAL]
MIC [1]: ≥ 77.5 µM
MIC [2]: ≥ 77.5 µM
MIC [3]: ≥ 77.5 µM
MIC [4]: ≥ 77.5 µM
MIC [5]: ≥ 77.5 µM
MIC [6]: ≥ 77.5 µM
MIC [7]: ≥ 77.5 µM
MIC [8]: ≥ 77.5 µM
MIC [9]: ≥ 77.5 µM
MIC [10]: ≥ 77.5 µM
MIC [11]: ≥ 38.7 µM
MIC [12]: ≥ 77.5 µM
MIC [13]: ≥ 77.5 µM
MIC [14]: ≥ 77.5 µM
MIC [15]: ≥ 77.5 µM
MIC [16]: > 77.5 µM
MIC [17]: 19.4 µM (≈ 32 µg/mL)
MIC [18]: ≥ 77.5 µM
MIC [19]: ≥ 77.5 µM
MIC [20]: ≥ 38.7 µM
MIC [21]: 9.68 µM (≈ 16 µg/mL)
MIC [22]: ≥ 77.5 µM
MIC [23]: ≥ 77.5 µM
MIC [24]: ≥ 77.5 µM
MIC [25]: ≥ 77.5 µM

CC(C)C[C@H](NC(=O)[C@H](CC(C)C)NC(=O)[C@@H](N)CCC(=O)O)C(=O)N[C@@H](CO)C(=O)N[C@@H](CCCCN)C(=O)N[C@H](C(=O)N[C@@H](CC(=O)O)C(=O)O)C(C)C [ELLSKVD]
MIC [26]: ≥ 79.7 µM
MIC (Staphylococcus aureus MR): ≥ 79.7 µM
MIC [27]: ≥ 159 µM
MIC [28]: > 159 µM
MIC [29]: ≥ 159 µM
MIC [30]: 79.7 µM (≈ 64 µg/mL)
MIC [31]: ≥ 159 µM
MIC [32]: ≥ 159 µM
MIC (Enterococcus faecalis A4): ≥ 159 µM
MIC [33]: 79.7 µM (≈ 64 µg/mL)
MIC [34]: ≥ 79.7 µM
MIC [35]: ≥ 159 µM
MIC [36]: ≥ 159 µM
MIC [37]: ≥ 159 µM
MIC [38]: ≥ 159 µM

CC[C@H](C)[C@H](NC(=O)[C@H](CCCCN)NC(=O)[C@H](Cc1ccccc1)NC(=O)[C@H](CCCN=C(N)N)NC(=O)[C@H](CCCCN)NC(=O)[C@@H](NC(=O)[C@@H](NC(=O)[C@H](Cc1ccccc1)NC(=O)CN)[C@@H](C)CC)C(C)C)C(=O)N[C@@H](CC(C)C)C(=O)N[C@H](C(=O)O)C(C)C [GFIVKRFKILV]
MIC (Bacillus subtilis 168 HT): ≥ 97 µM
MIC (Escherichia coli MG1655): ≥ 97 µM

CC[C@H](C)[C@H](NC(=O)[C@H](CCCCN)NC(=O)[C@H](CCCCN)NC(=O)[C@H](CC(C)C)NC(=O)[C@H](CCCN=C(N)N)NC(=O)[C@H](Cc1c[nH]c2ccccc12)NC(=O)[C@H](CCCN=C(N)N)NC(=O)[C@@H](NC(=O)[C@H](CCCCN)NC(=O)[C@H](Cc1c[nH]c2ccccc12)NC(=O)[C@H](CCCN=C(N)N)NC(=O)[C@H](CC(C)C)NC(=O)[C@H](CCCN=C(N)N)NC(=O)[C@H](CCCN=C(N)N)NC(=O)[C@H](Cc1ccccc1)NC(=O)[C@@H](N)CCCN=C(N)N)[C@@H](C)O)C(=O)N[C@@H](Cc1c[nH]c2ccccc12)C(=O)N[C@@H](Cc1c[nH]c2ccccc12)C(=O)N1CCC[C@H]1C(=O)N[C@@H](Cc1ccccc1)C(=O)N[C@@H](CC(C)C)C(=O)N[C@@H](CCCN=C(N)N)C(=O)N[C@@H](CCCN=C(N)N)C(N)=O [RFRRLRWKTRWRLKKIWWPFLRR]
MIC (Escherichia coli ER2566): 0.987 µM (≈ 3.3 µg/mL)
MIC [39]: 4.01 µM (≈ 13.4 µg/mL)
MIC [40]: 7.99 µM (≈ 26.7 µg/mL)
MIC [41]: 2 µM (≈ 6.7 µg/mL)
MIC [30]: 2 µM (≈ 6.7 µg/mL)
MIC [42]: 2 µM (≈ 6.7 µg/mL)
MIC (Escherichia coli 078): 4.01 µM (≈ 13.4 µg/mL)
MIC [16]: 4.01 µM (≈ 13.4 µg/mL)
MIC (Escherichia coli K88): 0.509 µM (≈ 1.7 µg/mL)
MIC [43]: 4.01 µM (≈ 13.4 µg/mL)
MIC [44]: 4.01 µM (≈ 13.4 µg/mL)
MIC (Escherichia coli UB1005): 0.987 µM (≈ 3.3 µg/mL)
MIC [45]: 0.987 µM (≈ 3.3 µg/mL)
MIC [46]: 0.987 µM (≈ 3.3 µg/mL)
MIC [47]: 2 µM (≈ 6.7 µg/mL)
MIC [48]: 2 µM (≈ 6.7 µg/mL)
MIC [49]: 0.509 µM (≈ 1.7 µg/mL)
MIC [50]: 4.01 µM (≈ 13.4 µg/mL)
